From patent US6448034B1, “Production of variant nisin” (priority 1994, dated 2002)
Values after ≈ are worked out from the molar mass of the structure shown. Marks after values point to notes of the source that are not given here.

Assays:
FI7893 (nisA) = assay: Nisin immunity on GM17 agar plates with increasing nisin; format: cell-based, L. lactis; details: nisin level tolerated by strain FI7893 nisA
Method: (§1) Nisin activity in Lactococcal strains was assayed by both deferred and direct means. Plate diffusion bioassays were performed as previously described (Dodd et al (1992) Appl. Environ. Microbiol. 58, 3683-3693. Colonies growing on the surface of a GM17 plate were directly assayed by inverting over chloroform for 12 minutes and overlaying with agar seeded with the nisin sensitive L. lactis strain MG1614. Plates were incubated overnight and zone sizes around colonies compared with those of controls. Nisin immunity was determined by streaking cultures on a series of GM17 agar plates containing an increasing concentration of nisin and assessing the degree of growth at the different nisin levels. Control cultures (FI5876, positive) and MG1614 (negative) were included on each plate.

MG1614 = assay: as above; format: cell-based, L. lactis; details: nisin level tolerated by strain MG1614
Method: as §1

FI8198 (nisA/S33A) = assay: as above; format: cell-based, L. lactis; details: nisin level tolerated by strain FI8198 nisA/S33A
Method: as §1

FI8199 (nisA/S5A,S33A) = assay: as above; format: cell-based, L. lactis; details: nisin level tolerated by strain FI8199 nisA/S5A
Method: as §1

FI8070 (nisA/S5A) = assay: as above; format: cell-based, L. lactis; details: nisin level tolerated by strain FI8070 nisA/S5A
Method: as §1

FI8003 (nisA) = assay: as above; format: cell-based, L. lactis; details: nisin level tolerated by strain FI8003 nisA (BamHI site in promoter)
Method: as §1
A possible explanation for the difference in nisin sensitivity of these two Nis^− strains came from gene replacement studies involving the vector pFI740 (FIG. 2d). […] The only difference between the two sequences involved is that pFI740 has an additional BamHI site incorporated 80 bp upstream of the ATG start codon of nisA, and a BglII site immediately downstream of the coding region (FIG. 4). […] A single base pair change introduced as a result of engineering the BamHI site has the effect of converting the -35 sequence from CTGATT to CCGATT (FIG. 4).

FI5876 = assay: as above; format: cell-based, L. lactis
Method: as §1
(§2) The effect of disruption of the nisA gene on immunity of the host strain to nisin has been described previously (Dodd et al (1992) supra). […] The nisA deleted strain FI7990 was sensitive to nisin at a concentration of between 250 and 500 U/ml compared to the parent strain, FI5876, which will continue growing in the presence of nisin to over 1000 U/ml.

FI7990 (ΔnisA) = assay: as above; format: cell-based, L. lactis; details: nisin level tolerated by strain FI7990 ΔnisA
Method: as §1, §2

FI7847 [nisA-(fs)] [1] = assay: as above; format: cell-based, L. lactis; details: nisin level tolerated by strain FI7847 nisA-(fs)
Method: as §1, §2

[2] = system: nisin sensitive L. lactis strain MG1614; details: colony overlay assay; plasmid complementation; cited from earlier work
[3] = system: Lactobacillus helveticus CH-1; details: plate diffusion bioassay; plasmid-encoded nisA gene complementing nisA deficiency in host strain FI7332; cited from earlier work
FI7847 [nisA-(fs)] [4] = assay: Induction by nisin / nisin variants as inducing agent; format: cell-based, L. lactis; parameters: Induction: unit not given here; details: strain FI7847
Method: A particularly preferred embodiment of the third aspect of the invention is wherein the cells are cultured in the presence of nisA nisin or a variant nisin which can induce nisin expression. […] By adding sub-inhibitory concentrations of nisin to the growth medium, during fermentation, higher levels of the variant nisin are produced. Any variants that are less efficient as inducing agents benefit from the inclusion of nisin in the growth medium (ie a nisin induction step in the purification procedure). The amount of induction varies depending on the initial induction capacity of any particular variant (with I30W nisin A production more than doubled as a result of induction). Induction may be routinely included in the method as a means of maximising production levels. Any concerns about contamination with the wild type molecule are minimal as the nisin concentration required for induction is negligible compared to the amount of nisin variant being purified. Conveniently, the nisA nisin is a minimum amount that provides maximal induction of nisin production. This amount can be determined empirically by a person skilled in the art. Suitable nisA nisin concentrations for induction in this embodiment are from 1 nM to 500 nM, preferably 10 nM to 250 nM, more preferably 50 nM to 150 nM, most preferably 100 nM.
In some circumstances it is desirable to add nisA nisin as an inducer.

[5] = system: sensitive indicator strains; details: work described in WO 93/20213; cited from earlier work
[6] = system: sensitive L. Lactis strain MG1614; assay: Minimum inhibitory concentration (MIC); format: cell-based; details: Table 5
[7] = system: Lactobacillus helveticus CH-1; assay: Plate diffusion bioassay of cell-free extracts / culture supernatants; format: cell-based
Method: 150 μl samples of cell free extracts from strains: 4, FI5876; 5, FI7990; 6, FI8070; 7, FI8198; 8, FI8199 were loaded into wells bored in MRS agar seeded with the indicator strains Lactobacillus helveticus CH-1. Plates were incubated overnight at 42° C. Standards included on the assay plate are: 1,50; 2,100; 3,200; 9,300; 10,400 U/ml.
as §1
This corresponds to an increase of approximately 50% of nisin A levels, under the conditions used here (Table 1). This higher level of production was not found in the extracts of FI8199, producing the double mutant nisin A/Dha5A,Dha33A. […] In all cases the yield for a particular nisin variant was higher when using this gene replacement strategy than when the equivalent plasmid-encoded gene was employed in a plasmid complementation system (Table 3, Dodd et al (1992) (1993) supra).

Compound | Immunity (FI7893 (nisA)) | Immunity (MG1614) | Immunity (FI8198 (nisA/S33A)) | Immunity (FI8199 (nisA/S5A,S33A)) | Immunity (FI8070 (nisA/S5A)) | Immunity (FI8003 (nisA)) | Immunity (FI5876; nisin level tolerated by strain FI5876 (wild type)) | nisin concentration at which the strain continues growing (FI5876; parent strain FI5876) | Immunity (FI7990 (ΔnisA)) | Immunity (FI7847 [nisA-(fs)] [1]) | antimicrobial activity, plasmid-encoded gene complementing nisA deficiency [2] | nisin activity (% of wild type), complementation [3] | Induction (FI7847 [nisA-(fs)] [4]; inducing agent at 100 ng ml^−1) | Induction (FI7847 [nisA-(fs)] [4]; inducing agent at 1 mg ml^−1) | antimicrobial activity against sensitive indicator strains [5] | MIC [6] | Activity (% of wt) ([7]; antimicrobial activity in culture supernatants of gene-replaced strains, plate diffusion bioassays) | zone of inhibition / inhibitory effect compared with parent strain FI5876 ([7]; cell extracts of gene-replaced strains, plate diffusion bioassay) | nisin activity (% of wild type), gene replacement ([7]; plate diffusion bioassay, functional nisA gene incorporated in the chromosome of FI7990 in place of nisA deletion)
nisin | >1 U/ml × 10^3 | 0.01 U/ml × 10^3 | >1 U/ml × 10^3 | >1 U/ml × 10^3 | >1 U/ml × 10^3 | 0.25-0.5 U/ml × 10^3 | >1 U/ml × 10^3 | over 1000 U/ml | 0.25-0.5 U/ml × 10^3 | 0.5-0.75 U/ml × 10^3 |  |  |  |  |  |  |  |  | 
C/C=C(\NC(=O)[C@@H](N)[C@@H](C)CC)C(=O)N[C@@H]1CSC[C@@H](C(=O)N[C@H]2C(=O)N3CCC[C@H]3C(=O)NCC(=O)N[C@H](C(=O)N[C@@H](CCCCN)C(=O)N[C@H]3C(=O)NCC(=O)N[C@@H](C)C(=O)N[C@@H](CC(C)C)C(=O)N[C@@H](CCSC)C(=O)NCC(=O)N[C@H](C(=O)N[C@@H](CC(N)=O)C(=O)N[C@@H](CCSC)C(=O)N[C@@H](CCCCN)C(=O)N[C@H]4C(=O)N[C@@H](C)C(=O)N[C@H]5C(=O)N[C@@H](CS[C@H]4C)C(=O)N[C@@H](Cc4c[nH]cn4)C(=O)N[C@H](C(=O)N[C@@H](CO)C(=O)N[C@H](C(=O)N[C@@H](Cc4c[nH]cn4)C(=O)N[C@H](C(=O)N[C@@H](C)C(=O)N[C@@H](CCCCN)C(=O)O)C(C)C)[C@@H](C)CC)CS[C@H]5C)CS[C@H]3C)CS[C@H]2C)NC(=O)[C@H](CC(C)C)NC(=O)[C@H](C)NC(=O)[C@H]([C@@H](C)CC)NC1=O [nisin A (Dha5A, Dha33A)] |  |  |  |  |  |  |  |  |  |  | only detected in the more sensitive colony overlay assay | <1^d % of wild type | 34 | 106 | retained their antimicrobial activity | 1000 µg/mL (≈ 298 µM) | 100 % of wt | equivalent that of nisin A containing the single mutation and also the wild type molecule | 100 % of wild type
